# Data: US8865911B2, “Compounds and their use as BACE inhibitors” (Astrazeneca AB, priority 2010, dated 2014)
# Molecular target: T1, human β-Secretase (Homo sapiens (Human), UniProt P56817)
# Experiment: TR-FRET assay
# Format: biochemical
# Settings: sBACE-Fc, substrate (Europium)CEVNLDAEFK(Qsy7) 100 nM, pH4.5, 15 minutes at r.t.
# Method: (§1) The β-secretase enzyme used in the TR-FRET is prepared as follows: The cDNA for the soluble part of the human β-Secretase (AA 1-AA 460) was cloned using the ASP2-Fc10-1-IRES-GFP-neoK mammalian expression vector. The gene was fused to the Fc domain of IgG1 (affinity tag) and stably cloned into HEK 293 cells.
# (§2) The robotic systems Biomek FX and Velocity 11 were used for all liquid handling and the enzyme and substrate solutions were kept on ice until they were placed in the robotic system. Enzyme (9 μl) was added to the plate then 1 μl of compound in dimethylsulphoxide was added, mixed and pre-incubated for 10 minutes. Substrate (10 μl) was then added, mixed and the reaction proceeded for 15 minutes at r.t. The reaction was stopped with the addition of Stop solution (7 μl, NaAcetate, pH 9). […] The dimethylsulphoxide control, instead of test compound, defined the 100% activity level and 0% activity was defined by wells lacking enzyme (replaced with reaction buffer).
# T1 sequence (P56817 22-460): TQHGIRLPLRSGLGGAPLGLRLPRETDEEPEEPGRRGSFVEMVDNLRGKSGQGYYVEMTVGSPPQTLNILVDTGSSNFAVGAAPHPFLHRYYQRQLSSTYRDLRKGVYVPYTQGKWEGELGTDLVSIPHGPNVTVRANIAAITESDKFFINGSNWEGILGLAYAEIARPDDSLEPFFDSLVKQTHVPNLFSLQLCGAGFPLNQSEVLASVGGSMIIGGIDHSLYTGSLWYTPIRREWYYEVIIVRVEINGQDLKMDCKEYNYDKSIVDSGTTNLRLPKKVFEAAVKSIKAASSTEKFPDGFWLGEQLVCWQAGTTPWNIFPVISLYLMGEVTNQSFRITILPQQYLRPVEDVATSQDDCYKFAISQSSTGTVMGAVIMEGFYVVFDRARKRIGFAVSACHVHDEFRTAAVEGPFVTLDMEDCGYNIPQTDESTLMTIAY
row,SMILES,IC50
1,"CC1=NC2(N=C1N)c1cc(Br)ccc1CC21CCC1 (stereo not drawn) [Example 54, 6′-Bromo-5″-methyl-3′H-dispiro[cyclobutane-1,2′-indene-1′,2″-imidazol]-4″-amine]",6610 nM
2,"CC1=NC2(N=C1N)c1cc(-c3cc(F)cc(F)c3)ccc1C[C@]21CC[C@@H](OC(F)F)CC1 (stereo partly drawn) [Example 109, (1r,4r)-4-(Difluoromethoxy)-6′-(3,5-difluorophenyl)-5″-methyl-3′H-dispiro[cyclohexane-1,2′-indene-1′,2″-imidazol]-4″-amine]",21 nM
3,"CC#Cc1cncc(-c2ccc3c(c2)C2(N=C(C)C(N)=N2)[C@]2(CC[C@H](OC)CC2)C3)c1C (stereo partly drawn) [Example 63, (1r,4r)-4-Methoxy-5″-methyl-6′-[4-methyl-5-(prop-1-yn-1-yl)pyridin-3-yl]-3′H-dispiro[cyclohexane-1,2′-indene-1′,2″-imidazol]-4″-amine]",89 nM

# Molecular target: T1, human β-Secretase
# Experiment: Diluted TR-FRET assay
# Format: biochemical
# Settings: values marked ^a; 50 times less enzyme, 6.5 h reaction time at r.t. in the dark; read-out: IC50 in TR-FRET assay (IC50 from the diluted FRET assay)
# Method: as §1
# as §2, with “Substrate (10 μl) was then added, mixed and the reaction proceeded for 15 minutes at r.t.” left out
row,SMILES,IC50
1,"CC1=NC2(N=C1N)c1cc(-c3cc(Cl)cc(C#N)c3)ccc1C[C@]21CC[C@@H](OC(F)F)CC1 (stereo partly drawn) [Example 108, 3-[(1r,4r)-4″-Amino-4-(difluoromethoxy)-5″-methyl-3′H-dispiro[cyclohexane-1,2′-indene-1′,2″-imidazol]-6′-yl]-5-chlorobenzonitrile]",1.3 nM
2,"COc1cc(C#N)cc(-c2ccc3c(c2)[C@@]2(N=C(C)C(N)=N2)[C@]2(CC[C@H](OC(F)F)CC2)C3)c1 (racemic) [Example 106, 3-[(1r,4r)-4″-Amino-4-(difluoromethoxy)-5″-methyl-3′H-dispiro[cyclohexane-1,2′-indene-1′,2″-imidazol]-6′-yl]-5-methoxybenzonitrile]",1 nM
3,"CO[C@H]1CC[C@]2(CC1)Cc1ccc(NC(=O)c3ncc(Cl)cc3C)cc1C21N=C(C)C(N)=N1 (stereo partly drawn) [Example 20w, N-[(1r,4r)-4″-Amino-4-methoxy-5″-methyl-3′H-dispiro[cyclohexane-1,2′-indene-1′,2″-imidazol]-6′-yl]-5-chloro-3-methylpyridine-2-carboxamide]",18 nM
4,"COc1ccc(F)c(-c2ccc3c(c2)[C@@]2(N=C(C)C(N)=N2)[C@]2(CC[C@H](OC)CC2)C3)c1 [Example 98, (1r,1′R,4R)-6′-(2-Fluoro-5-methoxyphenyl)-4-methoxy-5″-methyl-3′H-dispiro[cyclohexane-1,2′-indene-1′,2″-imidazol]-4″-amine]",1.5 nM
5,"CO[C@H]1CC[C@]2(CC1)Cc1ccc(-c3cc(C)cc(C#N)c3)cc1C21N=C(C)C(N)=N1 (stereo partly drawn) [Example 74, 3-[(1r,4r)-4″-Amino-4-methoxy-5″-methyl-3′H-dispiro[cyclohexane-1,2′-indene-1′,2″-imidazol]-6′-yl]-5-methylbenzonitrile]",2.6 nM
6,"CC#Cc1cc(-c2ccc3c(c2)C2(N=C(C)C(N)=N2)[C@]2(CC[C@H](OC)CC2)C3)ccn1 (stereo partly drawn) [Example 20y, (1r,4r)-4-Methoxy-5″-methyl-6′-[2-(prop-1-yn-1-yl)pyridin-4-yl]-3′H-dispiro[cyclohexane-1,2′-indene-1′,2″-imidazol]-4″-amine]",4.9 nM
7,"CO[C@H]1CC[C@]2(CC1)Cc1ccc(-c3cc(Cl)cnc3C)cc1C21N=C(C)C(N)=N1 (stereo partly drawn) [Example 62, (1r,4r)-6′-(5-Chloro-2-methylpyridin-3-yl)-4-methoxy-5″-methyl-3′H-dispiro[cyclohexane-1,2′-indene-1′,2″-imidazol]-4″-amine]",19 nM
8,"CC#Cc1ccnc(-c2ccc3c(c2)C2(N=C(C)C(N)=N2)[C@]2(CC[C@H](OC)CC2)C3)c1 (stereo partly drawn) [Example 20b, (1r,4r)-4-Methoxy-5″-methyl-6′-[4-(prop-1-yn-1-yl)pyridin-2-yl]-3′H-dispiro[cyclohexane-1,2′-indene-1′,2″-imidazol]-4″-amine]",2.3 nM
9,"CCc1cc(C#N)cc(-c2ccc3c(c2)C2(N=C(C)C(N)=N2)[C@]2(CC[C@H](OC)CC2)C3)c1 (stereo partly drawn) [Example 95, 3-[(1r,4r)-4″-Amino-4-methoxy-5″-methyl-3′H-dispiro[cyclohexane-1,2′-indene-1′,2″-imidazol]-6′-yl]-5-ethylbenzonitrile]",5.3 nM
10,"CO[C@H]1CC[C@]2(CC1)Cc1ccc(-c3ccccc3)cc1[C@@]21N=C(C)C(N)=N1 [Example 90, (1r,1′R,4R)-4-Methoxy-5″-methyl-6′-phenyl-3′H-dispiro[cyclohexane-1,2′-indene-1′,2″-imidazol]-4″-amine]",13 nM
11,"CO[C@H]1CC[C@]2(CC1)Cc1ccc(-c3cc(C#N)cc(C(F)F)c3)cc1[C@@]21N=C(C)C(N)=N1 [Example 86, 3-[(1r,1′R,4R)-4″-Amino-4-methoxy-5″-methyl-3′H-dispiro[cyclohexane-1,2′-indene-1′,2″-imidazol]-6′-yl]-5-(difluoromethyl)benzonitrile]",1.5 nM
12,CC#Cc1cncc(-c2ccc3c(c2)C2(N=C(C)C(N)=N2)C2(CCC(OC)CC2)O3)c1 (stereo not drawn) [Example 30c],1.4 nM
13,"CO[C@H]1CC[C@]2(CC1)Cc1ccc(-c3cc(F)ccc3F)cc1[C@@]21N=C(C)C(N)=N1 [Example 99, (1r,1′R,4R)-6′-(2,5-Difluorophenyl)-4-methoxy-5′-methyl-3′H-dispiro[cyclohexane-1,2′-indene-1′,2″-imidazol]-4″-amine]",3.9 nM
14,"COC1CCC2(CC1)Oc1ccc(-c3cncc(Cl)c3)cc1C21N=C(C)C(N)=N1 (stereo not drawn) [Example 30d, 5′-(5-Chloropyridin-3-yl)-4-methoxy-5′-methyldispiro[cyclohexane-1,2′-[1]benzofuran-3′,2″-imidazol]-4″-amine]",5.2 nM
15,"CCC1=NC2(N=C1N)c1cc(-c3cncc(C#N)c3)ccc1C[C@]21CC[C@@H](OC)CC1 (stereo partly drawn) [Example 69, 5-[(1r,4r)-4″-Amino-5″-ethyl-4-methoxy-3′H-dispiro[cyclohexane-1,2′-indene-1′,2″-imidazol]-6′-yl]pyridine-3-carbonitrile]",21 nM
16,"CO[C@H]1CC[C@]2(CC1)Cc1ccc(-c3cncc(F)c3)cc1C21N=C(C)C(N)=N1 (stereo partly drawn) [Example 20f, (1r,4r)-6′-(5-Fluoropyridin-3-yl)-4-methoxy-5″-methyl-3′H-dispiro[cyclohexane-1,2′-indene-1′,2″-imidazol]-4″-amine]",5.5 nM

# Tested on: sAPPβ release, SH-SY5Y cells
# Experiment: sAPPβ release assay
# Format: cell-based
# Settings: Homo sapiens, SH-SY5Y, 17 h, compounds incubated 17 h, MSD detection
# Method: Thaw cells and seed at a conc. of around 10000 cells/well in DMEM/F-12 with Glutamax, 10% FCS and 1% non-essential amino acids to a 384-well tissue culture treated plate, 100 μL cell susp/well. […] The cell medium was removed, followed by addition of 30 μL compound diluted in DMEM/F-12 with Glutamax, 10% FCS, 1% non-essential amino acids and 1% PeSt to a final conc. of 1% DMSO. The compounds were incubated with the cells for 17 h (overnight) at 37° C., 5% CO2. Meso Scale Discovery (MSD) plates were used for the detection of sAPPβ release. MSD sAPPβ plates were blocked in 1% BSA in Tris wash buffer (40 μL/well) for 1 h on shake at r.t. and washed 1 time in Tris wash buffer (40 μL/well). 20 μL of medium was transferred to the pre-blocked and washed MSD sAPPβ microplates, and the cell plates were further used in an ATP assay to measure cytotoxicity. The MSD plates were incubated with shaking at r.t. for 2 h and the media discarded. 10 μL detection antibody was added (1 nM) per well followed by incubation with shaking at r.t. for 2 h and then discarded. 40 μL Read Buffer was added per well and the plates were read in a SECTOR Imager.
row,SMILES,IC50
1,"CC#Cc1cncc(-c2ccc3c(c2)C2(N=C(N)C(CC)=N2)[C@]2(CC[C@H](OC)CC2)C3)c1 (single isomer, unassigned) [Example 68 Isomer 1, (1r,4r)-5″-ethyl-4-methoxy-6′-[5-(prop-1-yn-1-yl)pyridin-3-yl]-3′H-dispiro[cyclohexane-1,2′-indene-1′,2″-imidazol]-4″-amine]",0.38 nM
2,"CCC1=NC2(N=C1N)c1cc(-c3cncc(Cl)c3)ccc1C[C@]21CC[C@@H](OC)CC1 (single isomer, unassigned) [Example 66 Isomer 1, (1r,4r)-6′-(5-chloropyridin-3-yl)-5″-ethyl-4-methoxy-3′H-dispiro[cyclohexane-1,2′-indene-1′,2″-imidazol]-4″-amine]",1.6 nM

# Same assay, conditions: compounds incubated 17 h, MSD detection
row,SMILES,IC50
1,"CC1=NC2(CC3(CCCOC3)Oc3ccc(-c4ccc(F)c(Cl)c4)cc32)N=C1N (single isomer, unassigned) [Example 46b Isomer 1, 6′-(3-Chloro-4-fluorophenyl)-5-methyl-5″,6″-dihydro-4′H-dispiro[imidazole-2,4′-chromene-2′,3″-pyran]-4-amine]",426 nM
2,"CO[C@H]1CC[C@]2(CC1)Cc1ccc(-c3cc(Br)cc(C#N)c3)cc1C21N=C(C)C(N)=N1 (single isomer, unassigned; isomer 1) [Example 94 Isomer 1, 3-[(1r,4r)-4″-Amino-4-methoxy-5″-methyl-3′H-dispiro[cyclohexane-1,2′-indene-1′,2″-imidazol]-6′-yl]-5-bromobenzonitrile]",0.17 nM

# Same assay, conditions: compounds incubated 17 h, MSD detection, listed as 71 Isomer 1
row,SMILES,IC50
1,"CCC1=NC2(N=C1N)c1cc(-c3cccc(C#N)c3)ccc1C[C@]21CC[C@@H](OC)CC1 (single isomer, unassigned) [Example 71 Isomer 1, 3-[(1r,4r)-4″-amino-5″-ethyl-4-methoxy-3′H-dispiro-[cyclohexane-1,2′-indene-1′,2″-imidazol]-6′-yl]benzonitrile]",5.2 nM
